In US4068070A, “α-Cyanoamine compounds and a process for producing the same” (Fuji Chemical Industry Co., Ltd., priority 1974, dated 1978):
Structures can show the parent of a compound that is named as a salt.

Assays:
[1] = tested on: coronary sinus out flow; assay: Effects on coronary sinus out flow; format: in vivo, mongrel adult dogs
Method in brief: (§1)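 Readouts: aortic pressure by transducer through carotid cannula, aortic root flow electromagnetically, coronary sinus flow and oxygen tension through Morawitz cannulation. Subjects were anesthetized (pentobarbital) open-chest adult mongrel dogs of either sex given intravenous test compound or active placebo.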

[2] = tested on: aortic blood flow; assay: Effects on aortic blood flow; format: in vivo, mongrel adult dogs
Method in brief: as §1

[3] = tested on: coronary blood flow; settings: marketed antianginal drug; cited from earlier work
[4] = tested on: coronary sinus oxygen tension; assay: Effects on coronary sinus oxygen tension; format: in vivo, mongrel adult dogs
Method in brief: as §1

[5] = tested on: heart rate; assay: Effects on heart rate; format: in vivo, mongrel adult dogs
Method in brief: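 Adult mongrel dogs of both sexes were anesthetized with pentobarbital and thoracotomized. Test agents, suspended or dissolved in 0.2% CMC, pH 6 HCl solution or saline, were injected intravenously into the brachial vein. Hemodynamic and coronary sinus parameters were then recorded.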

[6] = tested on: arterial mean blood pressure; assay: Effects on arterial mean blood pressure; format: in vivo, mongrel adult dogs
Method in brief: as §1

In the case of `COc1ccc(CN2CCNCC2)c(OC)c1OC` [Vastarel F, 2,3,4-trimethoxybenzylpiperazine dihydrochloride, reference compound], the “Changes(%) of basal values, coronary sinus out flow” value ([1]; 0.2 mg/kg i.v., 1 min) is reported as “+1.0%”, the “Changes(%) of basal values, coronary sinus out flow” value ([1]; 0.2 mg/kg i.v., 5 min) is reported as 0% and the “Changes(%) of basal values, coronary sinus out flow” value ([1]; 0.2 mg/kg i.v., 10 min) is reported as 0%. The “Changes(%) of basal values, coronary sinus out flow” value ([1]; 0.2 mg/kg i.v., 20 min) was 0%, the “Changes(%) of basal values, coronary sinus out flow” value ([1]; 0.2 mg/kg i.v., 30 min) was 0% and the “Changes(%) of basal values, coronary sinus out flow” value ([1]; 0.2 mg/kg i.v., 40 min) was 0%. For the same molecule, the “Changes(%) of basal values, coronary sinus out flow” value ([1]; 0.2 mg/kg i.v., imm.) was “+4.0%”, the “Changes(%) of basal values, coronary sinus out flow” value ([1]; 0.6 mg/kg i.v., 1 min) was “+2.5%” and the “Changes(%) of basal values, coronary sinus out flow” value ([1]; 0.6 mg/kg i.v., 5 min) was “+0.5%”. The “Changes(%) of basal values, coronary sinus out flow” value ([1]; 0.6 mg/kg i.v., 10 min) was 0%, the “Changes(%) of basal values, coronary sinus out flow” value ([1]; 0.6 mg/kg i.v., 20 min) was 0% and the “Changes(%) of basal values, coronary sinus out flow” value ([1]; 0.6 mg/kg i.v., 30 min) was 0%. The “Changes(%) of basal values, coronary sinus out flow” value ([1]; 0.6 mg/kg i.v., 40 min) was 0%, the “Changes(%) of basal values, coronary sinus out flow” value ([1]; 0.6 mg/kg i.v., imm.) was “+6.0%” and the “Changes(%) of basal values, coronary sinus out flow” value ([1]; 2.0 mg/kg i.v., 1 min) was -3.0%. The “Changes(%) of basal values, coronary sinus out flow” value ([1]; 2.0 mg/kg i.v., 5 min) was “+3.0%”, the “Changes(%) of basal values, coronary sinus out flow” value ([1]; 2.0 mg/kg i.v., 10 min) was “+9.0%” and the “Changes(%) of basal values, coronary sinus out flow” value ([1]; 2.0 mg/kg i.v., 20 min) was “+4.0%”. The “Changes(%) of basal values, coronary sinus out flow” value ([1]; 2.0 mg/kg i.v., 30 min) was 0%, the “Changes(%) of basal values, coronary sinus out flow” value ([1]; 2.0 mg/kg i.v., imm.) was -13.0% and the “Changes (%) of basal values, aortic blood flow” value (shortened to “Changes (%) … aortic blood flow”) ([2]; 0.2 mg/kg i.v., 1 min) was 0%. The “Changes (%) … aortic blood flow” value ([2]; 0.2 mg/kg i.v., 5 min) was 0%, the “Changes (%) … aortic blood flow” value ([2]; 0.2 mg/kg i.v., 10 min) was 0% and the “Changes (%) … aortic blood flow” value ([2]; 0.2 mg/kg i.v., 20 min) was 0%. For the same molecule, the “Changes (%) … aortic blood flow” value ([2]; 0.2 mg/kg i.v., 30 min) was 0%, the “Changes (%) … aortic blood flow” value ([2]; 0.2 mg/kg i.v., imm.) was 0% and the “Changes (%) … aortic blood flow” value ([2]; 0.6 mg/kg i.v., 1 min) was “+0.5%”. The “Changes (%) … aortic blood flow” value ([2]; 0.6 mg/kg i.v., 5 min) was 0%, the “Changes (%) … aortic blood flow” value ([2]; 0.6 mg/kg i.v., 10 min) was -1.0% and the “Changes (%) … aortic blood flow” value ([2]; 0.6 mg/kg i.v., 20 min) was -1.0%. For the same molecule, the “Changes (%) … aortic blood flow” value ([2]; 0.6 mg/kg i.v., 30 min) was 0%, the “Changes (%) … aortic blood flow” value ([2]; 0.6 mg/kg i.v., imm.) was “+1.5%” and the “Changes (%) … aortic blood flow” value ([2]; 2.0 mg/kg i.v., 1 min) was 0%. For the same molecule, the “Changes (%) … aortic blood flow” value ([2]; 2.0 mg/kg i.v., 5 min) was “+11.0%”, the “Changes (%) … aortic blood flow” value ([2]; 2.0 mg/kg i.v., 10 min) was “+23.0%” and the “Changes (%) … aortic blood flow” value ([2]; 2.0 mg/kg i.v., 20 min) was “+5.0%”. The “Changes (%) … aortic blood flow” value ([2]; 2.0 mg/kg i.v., 30 min) was “+5.0%”, the “Changes (%) … aortic blood flow” value ([2]; 2.0 mg/kg i.v., imm.) was -78.0% and the “depressant effect on the heart” value [3] was “depressant effect on the heart”. The “Changes(%) of basal values, coronary sinus oxygen tension” value ([4]; 0.2 mg/kg i.v., 1 min) was “+1.0%”, the “Changes(%) of basal values, coronary sinus oxygen tension” value ([4]; 0.2 mg/kg i.v., 5 min) was 0% and the “Changes(%) of basal values, coronary sinus oxygen tension” value ([4]; 0.2 mg/kg i.v., 10 min) was 0%. For the same molecule, the “Changes(%) of basal values, coronary sinus oxygen tension” value ([4]; 0.2 mg/kg i.v., 20 min) was 0%, the “Changes(%) of basal values, coronary sinus oxygen tension” value ([4]; 0.2 mg/kg i.v., 30 min) was 0% and the “Changes(%) of basal values, coronary sinus oxygen tension” value ([4]; 0.2 mg/kg i.v., imm.) was “+3.0%”. For the same molecule, the “Changes(%) of basal values, coronary sinus oxygen tension” value ([4]; 0.6 mg/kg i.v., 1 min) was “+5.5%”, the “Changes(%) of basal values, coronary sinus oxygen tension” value ([4]; 0.6 mg/kg i.v., 5 min) was “+1.0%” and the “Changes(%) of basal values, coronary sinus oxygen tension” value ([4]; 0.6 mg/kg i.v., 10 min) was 0%. For the same molecule, the “Changes(%) of basal values, coronary sinus oxygen tension” value ([4]; 0.6 mg/kg i.v., 20 min) was 0%, the “Changes(%) of basal values, coronary sinus oxygen tension” value ([4]; 0.6 mg/kg i.v., 30 min) was 0% and the “Changes(%) of basal values, coronary sinus oxygen tension” value ([4]; 0.6 mg/kg i.v., imm.) was “+9.0%”. The “Changes(%) of basal values, coronary sinus oxygen tension” value ([4]; 2.0 mg/kg i.v., 1 min) was “+1.5%”, the “Changes(%) of basal values, coronary sinus oxygen tension” value ([4]; 2.0 mg/kg i.v., 5 min) was “+2.0%” and the “Changes(%) of basal values, coronary sinus oxygen tension” value ([4]; 2.0 mg/kg i.v., 10 min) was “+5.0%”. The “Changes(%) of basal values, coronary sinus oxygen tension” value ([4]; 2.0 mg/kg i.v., 20 min) was “+3.0%”, the “Changes(%) of basal values, coronary sinus oxygen tension” value ([4]; 2.0 mg/kg i.v., 30 min) was 0% and the “Changes(%) of basal values, coronary sinus oxygen tension” value ([4]; 2.0 mg/kg i.v., imm.) was “+3.0%”. For the same molecule, the “minimum increase in oxygen tension” value ([4]; until after 5-20 minutes, i.v.) was 3-5%, the “Changes(%) of basal values, heart rate” value ([5]; 0.2 mg/kg i.v., 1 min) was 0% and the “Changes(%) of basal values, heart rate” value ([5]; 0.2 mg/kg i.v., 5 min) was -1.5%. For the same molecule, the “Changes(%) of basal values, heart rate” value ([5]; 0.2 mg/kg i.v., 10 min) was -1.0%, the “Changes(%) of basal values, heart rate” value ([5]; 0.2 mg/kg i.v., 20 min) was 0% and the “Changes(%) of basal values, heart rate” value ([5]; 0.2 mg/kg i.v., 30 min) was 0%. The “Changes(%) of basal values, heart rate” value ([5]; 0.2 mg/kg i.v., imm.) was “+1.5%”, the “Changes(%) of basal values, heart rate” value ([5]; 0.6 mg/kg i.v., 1 min) was “+0.5%” and the “Changes(%) of basal values, heart rate” value ([5]; 0.6 mg/kg i.v., 5 min) was -0.5%. The “Changes(%) of basal values, heart rate” value ([5]; 0.6 mg/kg i.v., 10 min) was 0%, the “Changes(%) of basal values, heart rate” value ([5]; 0.6 mg/kg i.v., 20 min) was -1.0% and the “Changes(%) of basal values, heart rate” value ([5]; 0.6 mg/kg i.v., 30 min) was 0%. The “Changes(%) of basal values, heart rate” value ([5]; 0.6 mg/kg i.v., imm.) was “+1.5%”, the “Changes(%) of basal values, heart rate” value ([5]; 2.0 mg/kg i.v., 1 min) was -2.0% and the “Changes(%) of basal values, heart rate” value ([5]; 2.0 mg/kg i.v., 5 min) was -2.0%. For the same molecule, the “Changes(%) of basal values, heart rate” value ([5]; 2.0 mg/kg i.v., 10 min) was -1.5%, the “Changes(%) of basal values, heart rate” value ([5]; 2.0 mg/kg i.v., 20 min) was -1.5% and the “Changes(%) of basal values, heart rate” value ([5]; 2.0 mg/kg i.v., 30 min) was -1.5%. The “Changes(%) of basal values, heart rate” value ([5]; 2.0 mg/kg i.v., imm.) was “+5.5%”, the “Changes (%) of basal values, arterial mean blood pressure” value ([6]; 0.2 mg/kg i.v., 1 min) was -1.0% and the “Changes (%) of basal values, arterial mean blood pressure” value ([6]; 0.2 mg/kg i.v., 5 min) was -2.0%. For the same molecule, the “Changes (%) of basal values, arterial mean blood pressure” value ([6]; 0.2 mg/kg i.v., 10 min) was -1.5%, the “Changes (%) of basal values, arterial mean blood pressure” value ([6]; 0.2 mg/kg i.v., 20 min) was 0% and the “Changes (%) of basal values, arterial mean blood pressure” value ([6]; 0.2 mg/kg i.v., 30 min) was 0%. For the same molecule, the “Changes (%) of basal values, arterial mean blood pressure” value ([6]; 0.2 mg/kg i.v., imm.) was -3.0%, the “Changes (%) of basal values, arterial mean blood pressure” value ([6]; 0.6 mg/kg i.v., 1 min) was -2.0% and the “Changes (%) of basal values, arterial mean blood pressure” value ([6]; 0.6 mg/kg i.v., 5 min) was -1.5%. The “Changes (%) of basal values, arterial mean blood pressure” value ([6]; 0.6 mg/kg i.v., 10 min) was -1.0%, the “Changes (%) of basal values, arterial mean blood pressure” value ([6]; 0.6 mg/kg i.v., 20 min) was 0% and the “Changes (%) of basal values, arterial mean blood pressure” value ([6]; 0.6 mg/kg i.v., 30 min) was 0%. The “Changes (%) of basal values, arterial mean blood pressure” value ([6]; 0.6 mg/kg i.v., imm.) was -6.0%, the “Changes (%) of basal values, arterial mean blood pressure” value ([6]; 2.0 mg/kg i.v., 1 min) was -35.0% and the “Changes (%) of basal values, arterial mean blood pressure” value ([6]; 2.0 mg/kg i.v., 5 min) was -2.0%. The “Changes (%) of basal values, arterial mean blood pressure” value ([6]; 2.0 mg/kg i.v., 10 min) was -1.0%, the “Changes (%) of basal values, arterial mean blood pressure” value ([6]; 2.0 mg/kg i.v., 20 min) was -1.0% and the “Changes (%) of basal values, arterial mean blood pressure” value ([6]; 2.0 mg/kg i.v., 30 min) was -2.0%. The “Changes (%) of basal values, arterial mean blood pressure” value ([6]; 2.0 mg/kg i.v., imm.) was -55.0%.
